Common to all, as to assay: growth of human tumour cells (NCI), 48 h
Assay [1] relates to HCC-2998 colon.
Assay [2] has as its system UACC-62 melanoma.
The test system of assay [3] is HT29 colon.
In assay [4] the test system is LOX IMVI melanoma.
In assay [5] the test system is SNB-75 CNS.
For assay [6], the system named is U251 CNS.
Assay [7] has as its system NCI-H226 lung.
The test system of assay [8] is SK-MEL-2 melanoma.
The test system of assay [9] is SR leukemia.
Assay [10] deals with SNB-19 CNS.

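Tested at 5 concentrations; 48 h exposure; 96-well plates; endpoints linearly interpolated, else capped at highest concentration. GI50: concentration for 50% inhibition of growth. Definition used: TGI = concentration required for complete inhibition of growth.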

For `COc1ccc(-c2coc3ncnc(N)c23)cc1`, the GI50 in assay [1], in assay [2], in assay [3], in assay [4], in assay [5] and in assay [6] was above 25 µM throughout. The GI50 in assay [7], in assay [8], in assay [9] and in assay [10] was above 25 µM in each case. In addition, the TGI in assay [1], in assay [2], in [3], in assay [4], in [5] and in assay [6] was above 25 µM in each case. Besides, the TGI in assay [7], in assay [8], in assay [9] and in [10] was above 25 µM in each case.
With `N=c1ccn2c(n1)OC1C(OP(=O)(O)O)C(CO)OC12` (centres undefined), the TGI is 96.4 µM in assay [1]; above 100 µM in assay [2]; above 100 µM in [3]; above 100 µM in assay [4]; above 100 µM in assay [5]; above 100 µM in assay [6]. Moreover, the TGI was above 100 µM in assay [7], above 100 µM in assay [8], above 51.1 µM in assay [9] and above 100 µM in assay [10].
For `CCC[CH2][Sn]1([CH2]CCC)[O]C(c2ccccn2)S(=O)(=O)[O]1` (centres undefined), the GI50 in assay [1] was 4.63 µM; in [2], 1.84 µM; in assay [3] it was 3.79 µM; in assay [4], 1.64 µM; in assay [5], 2.53 µM; in assay [6] it was 2.96 µM. Further, the GI50 in assay [7] is 16.2 µM; in assay [8], 1.7 µM; in [9] it was 2.45 µM; in assay [10], 11.4 µM. The TGI in [1] came to 18.3 µM; in [2] it was 3.78 µM; in [3], 12.2 µM; in assay [4], 3.07 µM; in [5], 7.26 µM; in assay [6], 11.8 µM. Besides, the TGI in [7] came to 30 µM; in assay [8], 3.22 µM; in [9], 6.62 µM; in assay [10], 23.5 µM.
With `CCC1CCc2nc3sc(C(=O)Nc4ccccc4F)c(N)c3cc2C1` (centres undefined), the GI50 in assay [1] is above 100 µM; in [2] it was 0.523 µM; in [3], 0.915 µM; in assay [4] it was 7.66 µM; in assay [5], 2.16 µM; in assay [6] it was above 100 µM. For the same compound, the GI50 was above 100 µM in assay [7], 10.5 µM in assay [8], 0.284 µM in [9] and 53.8 µM in assay [10]. Besides, the TGI in assay [1], in assay [2], in assay [3], in [4], in assay [5] and in [6] was above 100 µM in each case. Besides, the TGI in assay [7] was above 100 µM; in assay [8], above 100 µM; in assay [9], 38.1 µM; in assay [10] it was above 100 µM.
Regarding `Cc1cc(N(CCOS(C)(=O)=O)CCOS(C)(=O)=O)ccc1C=Nc1ccc(-c2csc(-c3ccccc3)n2)c(Cl)c1`, the TGI in assay [1] was 15.8 µM; in [2], 20.6 µM; in assay [3], 31.5 µM; in assay [4], 28.3 µM; in assay [5], 14.1 µM; in assay [6] it was above 64.8 µM. For the same compound, the TGI in [7] is 45.2 µM; in assay [8] it was 50.5 µM; in [9] it was 17.9 µM; in [10], above 61.1 µM.
For the compound `CC1=CC2=C(OCO1)C(=O)c1ccccc1C2=O`, the TGI is above 100 µM in assay [1]; 9.89 µM in assay [2]; 16.8 µM in assay [3]; 8.38 µM in assay [4]; 9.1 µM in [5]; 13.3 µM in assay [6]. For the same compound, the TGI in [7] amounted to 30.2 µM; in assay [8] it was 2.23 µM; in assay [9], 41.7 µM; in assay [10] it was 34 µM.
As for `CCCCCCN(CCCCCC)C(=N)c1ccnc2ccccc12`, the GI50 in assay [1] was 1.78 µM; in assay [2], 4.88 µM; in [3], 0.835 µM; in [4], 2.17 µM; in assay [5], 4.68 µM; in assay [6], 3.31 µM. Further, the GI50 was 11.8 µM in assay [7], 3.66 µM in [8], 1.74 µM in [9] and 11 µM in assay [10]. Besides, the TGI amounted to 3.54 µM in [1]; 19.6 µM in assay [2]; 7.88 µM in assay [3]; 6.33 µM in assay [4]; 17.3 µM in [5]; 10.9 µM in assay [6]. The TGI was determined as 26.7 µM in assay [7], 12.2 µM in [8], 5.34 µM in assay [9] and 25.7 µM in assay [10].
As for `O=c1oc2ccc(Cl)cc2c(=O)n1-c1ccc(Cl)cc1F`, the GI50 is 2.36 µM in assay [1]; 0.247 µM in assay [2]; 3.33 µM in assay [3]; 0.424 µM in assay [4]; 0.219 µM in [5]; 0.566 µM in assay [6]. In addition, the GI50 in assay [7] is 0.576 µM; in assay [8], 0.37 µM; in assay [9], 0.462 µM; in assay [10], 0.391 µM. For the same compound, the TGI is 8.09 µM in assay [1]; 0.964 µM in assay [2]; above 33.5 µM in assay [3]; 2.27 µM in assay [4]; 1.54 µM in assay [5]; above 31.6 µM in assay [6]. Further, the TGI was 3.3 µM in assay [7], 2.26 µM in assay [8] and above 100 µM in assay [10].
For `CS(=O)(=O)CCNCc1ccc(-c2ccc3ncnc(Nc4ccc(OCc5ccccc5)c(C(F)(F)F)c4)c3c2)o1`, the GI50 in assay [1] is 4.35 µM; in [2], 4.76 µM; in assay [3] it was 4.95 µM; in assay [4], 4.27 µM; in assay [5] it was 6.21 µM; in [6], 4.49 µM. Besides, the GI50 in assay [7] was 7.75 µM; in [8], 5.68 µM; in [9], 7.47 µM; in assay [10] it was 4.79 µM. The TGI in assay [1] is 8.25 µM; in assay [2], 8.66 µM; in [3], 9.05 µM; in assay [4], 8.33 µM; in [5], 24.7 µM; in [6], 8.92 µM. In addition, the TGI in assay [7] was above 25 µM; in assay [8], 11.4 µM; in assay [9], 19.9 µM; in assay [10], 9.37 µM.

For the origin of these results see PubChem BioAssay (NCI).
